This is an account of results in ChEMBL document CHEMBL1130474, “Conformationally restricted arginine analogues as inhibitors of human nitric oxide synthase” (Bioorg Med Chem Lett, 1997).

Experiment [1] has as its target T1, Nitric oxide synthase 3 (Homo sapiens, UniProt P29474).
T1 sequence (P29474 whole entry): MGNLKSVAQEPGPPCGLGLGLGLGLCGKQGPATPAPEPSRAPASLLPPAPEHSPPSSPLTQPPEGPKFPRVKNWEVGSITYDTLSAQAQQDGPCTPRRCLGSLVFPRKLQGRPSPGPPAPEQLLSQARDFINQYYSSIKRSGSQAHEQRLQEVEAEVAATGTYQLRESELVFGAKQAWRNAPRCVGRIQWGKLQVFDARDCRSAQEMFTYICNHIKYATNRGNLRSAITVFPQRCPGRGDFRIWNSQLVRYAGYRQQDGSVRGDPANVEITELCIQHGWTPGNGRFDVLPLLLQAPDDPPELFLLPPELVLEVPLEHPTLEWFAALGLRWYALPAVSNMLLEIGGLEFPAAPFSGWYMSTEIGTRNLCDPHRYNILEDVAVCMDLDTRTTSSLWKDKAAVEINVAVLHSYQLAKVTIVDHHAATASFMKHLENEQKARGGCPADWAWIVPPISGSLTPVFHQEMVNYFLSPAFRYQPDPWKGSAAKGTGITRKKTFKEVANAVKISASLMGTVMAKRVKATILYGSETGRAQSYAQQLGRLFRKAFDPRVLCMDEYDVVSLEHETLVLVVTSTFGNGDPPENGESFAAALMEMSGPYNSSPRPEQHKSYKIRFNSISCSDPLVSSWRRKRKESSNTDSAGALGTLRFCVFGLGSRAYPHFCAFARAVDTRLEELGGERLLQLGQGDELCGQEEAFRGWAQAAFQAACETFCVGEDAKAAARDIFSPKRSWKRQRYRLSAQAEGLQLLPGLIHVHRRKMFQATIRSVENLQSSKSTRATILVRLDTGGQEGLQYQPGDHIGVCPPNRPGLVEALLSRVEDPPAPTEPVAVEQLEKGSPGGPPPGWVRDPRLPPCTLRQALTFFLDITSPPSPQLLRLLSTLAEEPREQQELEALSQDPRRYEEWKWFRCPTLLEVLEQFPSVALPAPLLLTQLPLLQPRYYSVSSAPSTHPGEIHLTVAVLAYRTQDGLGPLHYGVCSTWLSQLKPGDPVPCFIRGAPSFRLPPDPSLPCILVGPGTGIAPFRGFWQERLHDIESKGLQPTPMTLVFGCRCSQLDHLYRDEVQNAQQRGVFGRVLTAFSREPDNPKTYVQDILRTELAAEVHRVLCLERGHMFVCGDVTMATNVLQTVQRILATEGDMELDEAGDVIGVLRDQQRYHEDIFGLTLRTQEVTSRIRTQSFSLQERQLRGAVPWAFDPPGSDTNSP
Description: Inhibitory constant for the inhibition of human Endothelial nitric oxide synthase.

In experiment [2] the target is Nitric oxide synthase, inducible (Homo sapiens, UniProt P35228). Description: Inhibitory constant for the inhibition of human Inducible nitric oxide synthase.
Chain of Nitric oxide synthase, inducible (P35228 whole entry): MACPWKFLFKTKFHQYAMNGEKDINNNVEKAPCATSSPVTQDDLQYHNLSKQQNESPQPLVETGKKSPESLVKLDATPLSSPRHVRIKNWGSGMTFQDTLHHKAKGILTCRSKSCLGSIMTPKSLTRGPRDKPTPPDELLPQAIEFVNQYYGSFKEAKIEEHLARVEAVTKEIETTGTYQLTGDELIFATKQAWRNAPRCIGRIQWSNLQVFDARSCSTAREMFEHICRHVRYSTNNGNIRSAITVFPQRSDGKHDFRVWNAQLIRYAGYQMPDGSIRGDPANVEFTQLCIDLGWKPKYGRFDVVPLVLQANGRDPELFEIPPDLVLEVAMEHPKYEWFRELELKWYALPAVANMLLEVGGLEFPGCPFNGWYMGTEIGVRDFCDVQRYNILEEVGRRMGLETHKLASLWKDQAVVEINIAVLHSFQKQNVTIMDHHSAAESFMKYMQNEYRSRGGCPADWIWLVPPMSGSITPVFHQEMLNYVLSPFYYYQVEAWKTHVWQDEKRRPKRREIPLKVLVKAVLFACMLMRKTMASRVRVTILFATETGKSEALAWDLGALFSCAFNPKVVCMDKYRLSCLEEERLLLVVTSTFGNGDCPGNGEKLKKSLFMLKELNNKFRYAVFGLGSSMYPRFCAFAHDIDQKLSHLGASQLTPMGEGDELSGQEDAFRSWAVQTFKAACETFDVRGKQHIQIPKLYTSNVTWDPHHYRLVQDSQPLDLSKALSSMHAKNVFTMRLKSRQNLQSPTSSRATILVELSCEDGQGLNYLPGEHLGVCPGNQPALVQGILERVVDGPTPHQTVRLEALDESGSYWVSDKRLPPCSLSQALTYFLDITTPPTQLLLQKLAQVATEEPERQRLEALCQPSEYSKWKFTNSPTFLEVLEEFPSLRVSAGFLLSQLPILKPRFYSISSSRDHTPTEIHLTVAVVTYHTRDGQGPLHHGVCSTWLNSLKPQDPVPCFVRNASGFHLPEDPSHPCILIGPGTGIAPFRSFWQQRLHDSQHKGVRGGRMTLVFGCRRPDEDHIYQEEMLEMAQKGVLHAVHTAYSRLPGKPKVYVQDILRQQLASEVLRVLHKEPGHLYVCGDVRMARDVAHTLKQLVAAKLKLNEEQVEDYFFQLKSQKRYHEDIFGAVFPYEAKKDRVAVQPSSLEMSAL
Experiment [3] has as its target Nitric oxide synthase 1 (Homo sapiens, UniProt P29475). Description: Inhibitory constant for the inhibition of human Neuronal nitric oxide synthase.

Chain of Nitric oxide synthase 1 (P29475 whole entry): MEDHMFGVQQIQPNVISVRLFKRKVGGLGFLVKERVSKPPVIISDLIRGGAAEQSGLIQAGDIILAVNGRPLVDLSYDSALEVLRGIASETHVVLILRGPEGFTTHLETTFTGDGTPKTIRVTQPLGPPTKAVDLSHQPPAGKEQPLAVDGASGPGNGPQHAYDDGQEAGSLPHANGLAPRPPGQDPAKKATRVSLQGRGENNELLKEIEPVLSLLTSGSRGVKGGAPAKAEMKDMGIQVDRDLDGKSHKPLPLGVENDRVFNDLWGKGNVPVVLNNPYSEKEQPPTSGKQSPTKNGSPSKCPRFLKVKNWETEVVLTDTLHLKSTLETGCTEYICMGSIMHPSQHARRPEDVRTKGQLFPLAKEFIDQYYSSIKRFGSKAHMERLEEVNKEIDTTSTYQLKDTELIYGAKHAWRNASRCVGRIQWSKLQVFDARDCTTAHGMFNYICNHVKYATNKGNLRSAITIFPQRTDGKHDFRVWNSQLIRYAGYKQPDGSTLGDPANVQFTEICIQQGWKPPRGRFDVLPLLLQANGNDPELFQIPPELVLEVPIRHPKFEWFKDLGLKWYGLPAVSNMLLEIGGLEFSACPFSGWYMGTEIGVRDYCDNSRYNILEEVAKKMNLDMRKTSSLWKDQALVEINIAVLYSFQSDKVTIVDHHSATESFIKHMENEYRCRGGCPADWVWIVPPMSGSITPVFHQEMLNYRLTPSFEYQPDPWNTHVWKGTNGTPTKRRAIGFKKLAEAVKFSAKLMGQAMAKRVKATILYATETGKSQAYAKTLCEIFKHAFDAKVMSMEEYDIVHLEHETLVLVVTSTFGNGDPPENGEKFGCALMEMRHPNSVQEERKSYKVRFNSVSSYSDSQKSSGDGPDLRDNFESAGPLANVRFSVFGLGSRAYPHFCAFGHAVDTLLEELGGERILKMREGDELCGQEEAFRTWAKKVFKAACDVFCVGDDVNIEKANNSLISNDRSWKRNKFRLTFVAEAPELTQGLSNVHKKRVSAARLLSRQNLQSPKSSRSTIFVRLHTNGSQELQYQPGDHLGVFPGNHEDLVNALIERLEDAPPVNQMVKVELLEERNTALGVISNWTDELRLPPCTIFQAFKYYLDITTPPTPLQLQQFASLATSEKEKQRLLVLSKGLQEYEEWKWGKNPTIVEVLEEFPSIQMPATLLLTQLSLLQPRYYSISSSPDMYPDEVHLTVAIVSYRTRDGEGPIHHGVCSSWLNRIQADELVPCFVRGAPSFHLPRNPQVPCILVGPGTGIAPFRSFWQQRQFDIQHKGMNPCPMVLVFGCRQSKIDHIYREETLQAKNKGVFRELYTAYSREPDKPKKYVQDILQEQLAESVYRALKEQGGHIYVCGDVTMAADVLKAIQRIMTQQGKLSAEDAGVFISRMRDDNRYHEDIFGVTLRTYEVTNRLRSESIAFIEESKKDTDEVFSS

Turning to `NC(N)=Nc1ccccc1CC(N)C(=O)O` (stereo not given), the values for the Ki in experiment [1], in experiment [2] and in experiment [3] were 0.25 µM, 2.6 µM and 0.37 µM, respectively.

With `CNC(N)=Nc1cccc(CC(N)C(=O)O)c1` (stereo not given), the Ki – broadly, the dissociation constant of the complex between target and ligand, obtained from inhibition or displacement – came to 8.8 µM in experiment [1], 96 µM in experiment [2] and 8.4 µM in experiment [3].

In the case of `CC(=N)Nc1cccc(CC(N)C(=O)O)c1` (stereo not given), the Ki in experiment [1] came out at 39 µM; in experiment [2] it was 82 µM; in experiment [3], 29 µM.

On to `C/N=C(/N)Nc1ccccc1CC(N)C(=O)O` (stereo not given), for which the Ki in experiment [1] amounted to 0.27 µM; in experiment [2], 0.6 µM; in experiment [3] it was 0.41 µM.

Consider `N=C(N)Nc1cccc(CC(N)C(=O)O)c1` (stereo not given), for which the Ki in experiment [1] was 46 µM; in experiment [2], 100 µM; in experiment [3], 44 µM.

For the compound `CC(=N)Nc1ccccc1CC(N)C(=O)O` (stereo not given), the Ki in experiment [1] was 1.6 µM; in experiment [2], 1.9 µM; in experiment [3], 1.3 µM.

Turning to `CC(=N)NCCC[C@H](N)C(=O)O` [L-NIO], the Ki in experiment [1] came out at 0.81 µM; in experiment [2], 0.34 µM.
